Measured values reported in ChEMBL document CHEMBL1145672, “Isolation and identification of trachyloban-19-oic and (-)-kaur-16-en-19-oic acids as antimicrobial agents from the prairie sunflower, Helianthus annuus” (1983).
In brackets after ≈: the same amount, converted by molar mass. Activity calls are given as the source filed them. No cut-off for these calls is given here.

Legend:
Staphylococcus aureus [1] = experiment: Antimicrobial activity against Staphylococcus aureus ATCC 13709 by agar-dilution streak method; type: functional
[2] = test system: Mycolicibacterium smegmatis; experiment: Antimicrobial activity against Mycobacterium smegmatis ATCC 607 by agar-dilution streak method; type: functional
Escherichia coli [3] = experiment: Antimicrobial activity against Escherichia coli ATCC 9637 at 100 ug/mL by agar-dilution streak method; type: functional, organism-based
[4] = test system: Salmonella enterica subsp. enterica serovar Gallinarum; experiment: Antimicrobial activity against Salmonella gallinarum ATCC 9184 at 100 ug/mL by agar-dilution streak method; type: functional, organism-based
Klebsiella pneumoniae [5] = experiment: Antimicrobial activity against Klebsiella pneumoniae ATCC 10031 at 100 ug/mL by agar-dilution streak method; type: functional, organism-based
Candida albicans = experiment: Antimicrobial activity against Candida albicans ATCC 10231at 100 ug/mL by agar-dilution streak method; type: functional, organism-based
Escherichia coli [6] = experiment: Antimicrobial activity against Escherichia coli ATCC 9637 by agar-dilution streak method; type: functional
[7] = test system: Salmonella enterica subsp. enterica serovar Gallinarum; experiment: Antimicrobial activity against Salmonella gallinarum ATCC 9184 by agar-dilution streak method; type: functional
Klebsiella pneumoniae [8] = experiment: Antimicrobial activity against Klebsiella pneumoniae ATCC 10031 by agar-dilution streak method; type: functional
Staphylococcus aureus [9] = experiment: Antimicrobial activity against Staphylococcus aureus ATCC 13709 at 100 ug/mL by agar-dilution streak method; type: functional, organism-based

Row | MIC (Staphylococcus aureus [1]) | MIC [2] | Structure (SMILES) | Activity (Escherichia coli [3]) | Activity [4] | Activity (Klebsiella pneumoniae [5]) | Activity (Candida albicans) | MIC (Escherichia coli [6]) | MIC [7] | MIC (Klebsiella pneumoniae [8]) | Activity (Staphylococcus aureus [9])
1 | 12.5 µg/mL (≈ 41.3 µM) | 6.25 µg/mL (≈ 20.7 µM) | C=C1C[C@@]23CC[C@H]4[C@@](C)(CCC[C@]4(C)C(=O)O)[C@@H]2CCC1C3 | inactive | inactive | inactive | inactive | – | – | – | –
2 | – | 25 µg/mL (≈ 79 µM) | C=C1C[C@@]23CC[C@H]4[C@@](C)(CCC[C@@]4(C)C(=O)OC)[C@@H]2CC[C@@H]1C3 [KAURENOIC ACID METHYL ESTER] | inactive | inactive | inactive | inactive | – | – | – | inactive
3 | 6.25 µg/mL (≈ 20.7 µM) | 6.25 µg/mL (≈ 20.7 µM) | C[C@@]12C[C@@]34CC[C@H]5[C@@](C)(CCC[C@]5(C)C(=O)O)[C@@H]3C[C@H]1[C@H]2C4 | inactive | inactive | inactive | inactive | – | – | – | –

Row | Structure (SMILES) | MIC (Staphylococcus aureus [1]) | MIC [2] | Activity (Escherichia coli [3]) | Activity [4] | Activity (Klebsiella pneumoniae [5]) | Activity (Candida albicans) | MIC (Escherichia coli [6]) | MIC [7] | MIC (Klebsiella pneumoniae [8]) | Activity (Staphylococcus aureus [9])
4 | CN[C@@H]1[C@H](O[C@H]2[C@H](O[C@H]3[C@H](O)[C@@H](O)[C@H](N=C(N)N)[C@@H](O)[C@@H]3N=C(N)N)O[C@@H](C)[C@]2(O)C=O)O[C@@H](CO)[C@H](O)[C@H]1O [STREPTOMYCIN] | 3.1 µg/mL (≈ 5.33 µM) | 0.78 µg/mL (≈ 1.34 µM) | – | – | – | inactive | 12.5 µg/mL (≈ 21.5 µM) | 25 µg/mL (≈ 43 µM) | 1.56 µg/mL (≈ 2.68 µM) | –
